Entries after “also recorded” stand apart in the source; their conditions may differ.
Key:
Assay type in all cases: cell-based, human
T3M4 cells [1] = assay: Matrigel cell invasion assay, shRNA infected T3M4 cells; details: 18 hours
Method: (§1) Cell invasion was measured as reported previously, with some modification (Rowland-Goldsmith, M. A. et al. 2001. Clin. Cancer Res. 7:2931-2940). Briefly, cells were suspended in 500 μL of serum-free medium (0.1% BSA) and placed onto the upper compartment of Matrigel-coated transwell chambers (8 μm pore sized, BioCoat Matrigel Invasion Chambers, BD Biosciences, San Jose, Calif.). The lower compartment was filled with 750 μL of medium containing serum free media in the absence or presence of the respective growth factors. After 18-20 hours, cells on the upper surface of the filter were carefully removed with a cotton swab and the membranes were fixed in methanol. The cells that had migrated through the membrane to the lower surface of the filter were stained with toluidine blue (Fisher Scientific, Fair Lawn, N.J.) and counted using a light microscope.

PANC-1 cells [2] = assay: Matrigel cell invasion assay, sham and 14-3-3σ overexpressing PANC-1 clones; details: 20 hours
Method: as §1

PANC-1 cells [3] = assay: cisplatinum induced apoptosis, immunoblot of cleaved PARP and cleaved caspase-3, PANC-1 clones; details: 10 μg/mL cisplatinum; 24 hours
Method: (§2) Sham or 14-3-3σ transfected PANC-1 cells were incubated for 24 hours in complete medium in the absence or presence of 10 μg/mL of cisplatinum. Scrambled or 14-3-3σ specific shRNA infected T3M4 cells were incubated in complete medium for 24 hours that was supplemented with 10 μg/mL cisplatinum for the initial 2 or 6 hours, or the entire 24 hours. Both floating and adherent cells were then collected and lysed in the buffer containing protease inhibitors, subjected to 10% SDS-PAGE, and immunoblotted with specific antibodies against cleaved Poly (ADP-ribose) Polymerase (PARP) and cleaved caspase-3 (Cell Signaling Technology, Danvers, Mass.).

T3M4 cells [4] = assay: cisplatinum induced apoptosis, immunoblot of cleaved PARP and cleaved caspase-3, shRNA infected T3M4 cells; details: cisplatinum 10 νg/mL for 2, 6, or 24 hours
Method: as §2

PANC-1 cells [5] = assay: MTT assay, survival of PANC-1 clones with cisplatinum; details: 10 μg/mL cisplatinum; 48 hours
Method: Sham-transfected PANC-1 cells and 14-3-3σ transfected clones (1×10^4) were plated in 96-well plates (six wells per sample). Cells were allowed to attach and grow for 48 hours in complete medium, and then treated with complete medium in the absence or presence of 10 μg/mL of cisplatinum (Sigma) for 48 hours, followed by the addition of MTT (3-[4,5-dimethylthiazol-2-yl]-2,5-diphenyltetrazolium bromide) (Sigma) at a final concentration 0.55 μg/mL. After an additional 4 hour incubation, absorbance at 570 nm was determined, with a reference of 650 nm, using a Emax precision microplate reader (Molecular devices, Sunnyvale, Calif.), as previously reported (Arnold, N. B. et al. 2004. Cancer Res. 64:3599-3606). It was previously determined that in pancreatic cancer cell lines the MTT assay correlates closely with cell growth as determined by cell counting and by assessing [^3H]thymidine incorporation (Raitano, A. B. and M. Korc. 1990. J. Biol. Chem. 265:10466-10472; Baldwin, R. L. and M. Korc. 1993. Growth Fact. 8:23-34).

PANC-1 cells [6] = assay: in vitro wound-healing (migration) assay, sham and 14-3-3σ overexpressing PANC-1 clones; details: EGF 1 nmol/L; serum free media; 24 hours
Method: (§3) To assess the motility properties, in vitro wound-healing assays or migration assays were performed. Cells were grown to confluence in 6-well tissue culture plates, serum starved overnight, and the monolayer was scratched with a 200 μL pipette tip generating two parallel wounds. The scratched wells were washed to remove cell debris and incubated for the next 24 hours in serum free media in the absence or presence 1 nmol/L EGF with or without the Src family kinase inhibitor PP2 (4-amino-5-(4-chlorophenyl)-7-(t-butyl)pyrazolo[3,4-d]pyrimidine) (Alexis, La Jolla, Calif.). To monitor cell migration, photographs were taken of each well at five marked locations under 40× magnification immediately after wounding (t0) and again 24 hours after wounding (t24), using an inverted microscope fitted with a digital camera (Nikon Diaphot 300, Nikon, Japan). The wound area of five matched pictures at t0 and t24 from each well were then measured using the ImageJ software (NIH, Bethedsa, Md.), and the percentage change in the wound area was calculated.

T3M4 cells [7] = assay: in vitro wound-healing (migration) assay, shRNA infected T3M4 cells; details: EGF 1 nmol/L; 24 hours; control shRNA, sh1 or sh2 infected cells; percentage change in wound area
Method: as §3

COc1cc2ncnc(Nc3cccc(Br)c3)c2cc1OC [AG 1517, reference compound]
effect on EGF induced invasion in 14-3-3σ downregulated cells (sh2 infected) (T3M4 cells [1]; EGF 1 nmol/L, AG 1517 1 μmol/L, PP2 10 μmol/L): suppressed

C[S+]([O-])c1ccc(-c2nc(-c3ccncc3)c(-c3ccc(F)cc3)[nH]2)cc1 (stereo not drawn) [SB203580, reference compound]
effect on EGF-mediated invasion in 14-3-3σ overexpressing clones (PANC-1 cells [2]; EGF 1 nmol/L, LY 294002 5 μmol/L, SB 203580 10 μmol/L, PP2 10 μmol/L, clone C1): suppressed; also recorded: completely blocked

N.N.[Cl][Pt][Cl] [cisplatinum]
PARP cleavage in 14-3-3σ overexpressing clones compared with sham transfected cells (PANC-1 cells [3]): attenuated | generation of cleaved caspase-3 in 14-3-3σ overexpressing clones compared with sham transfected cells (PANC-1 cells [3]): markedly decreased | apoptosis (PARP cleavage, caspase-3 activation) in 14-3-3σ silenced cells compared to non-silenced cells (T3M4 cells [4]): increased apoptosis | survival of 14-3-3σ overexpressing clones compared with Sham (MTT) (PANC-1 cells [5]): significant (p<0.01) increase

EGF: EGF growth factor, ligand of the EGF receptor, added at 1 nmol/L (NSDSECPLSHDGYCLHDGVCMYIEALDKYACNCVVGYIGERCQYRDLKWWELR; UniProt P01133 971-1023, looked up)
motility of 14-3-3σ overexpressing cells (PANC-1 cells [6]): did not cause an additional increase in motility | motility of sham-transfected cells (PANC-1 cells [6]): slight but significant increase | EGF stimulated motility (T3M4 cells [7]): about 50% | invasion of sham transfected cells (PANC-1 cells [2]; EGF 1 nmol/L): not statistically significant | invasion of 14-3-3σ overexpressing clones (PANC-1 cells [2]; EGF 1 nmol/L, clones C1 and C7): markedly enhanced | invasion in 14-3-3σ downregulated cells (sh2 infected) compared to control shRNA infected cells (T3M4 cells [1]; EGF 1 nmol/L): marked increase

IGF-1: IGF-1 growth factor used as chemoattractant at 1 nmol/L
invasion of PANC-1 clones overexpressing 14-3-3σ compared to sham cells (PANC-1 cells [2]; IGF-1 1 nmol/L): significantly increased | IGF-1-mediated invasion in presence of endogenously high levels of 14-3-3σ (T3M4 cells [1]; IGF-1 1 nmol/L, non-silenced T3M4): robust | IGF-1 effect on invasion in T3M4 cells in which 14-3-3σ was silenced (T3M4 cells [1]; IGF-1 1 nmol/L, sh1 or sh2 infected): markedly attenuated; also recorded: completely suppressed

— patent US20110152358A1, “Compositions and Methods for Diagnosis and Treatment of Pancreatic Ductal Cancer” (priority 2008, published 2011)
